For one series, the system named is HEK293T cells. Kind of series: MTT cell viability assay, HEK293T cells. Type of series: cell-based, human. As to conditions: 48 h incubation, mean ± SD, stock in DMSO (3-Cl and cisplatin in water). As to the method: (§1) Cell viability tests of the ligand and metal precursors (pqhyme, pqca, pcqame, [Ru(η^6-p-cymene)(μ-Cl)Cl]2) and the ruthenium(II)–arene complexes 1-Cl, 2-Cl and 3-Cl were conducted in two cell lines, including epithelial-like HEK293T cells (human embryonic kidney cells) and tumor-derived HeLa cells (cervical cancer cells), by MTT colorimetric assay, after 48 h incubation (MTT = 3-(4,5-dimethylthiazol-2-yl)-2,5-diphenyl tetrazolium bromide). For comparison, the 3-PF6 analog was also studied. Generally, a 5 to 10 mM stock solution of the complexes in DMSO (H2O for cisplatin) was prepared and diluted appropriately to reach the final concentration reported in the Materials and Methods. HeLa cancer cells were chosen since this cell line is widely used in cytotoxicity studies while the non-cancerous HEK293T cell line was used for comparison. Cytotoxicity results of all substances studied in both cell lines expressed as IC50 mean values, are summarized in Table 1, including that of cisplatin, which served as control under the same conditions. The IC50 values were calculated using a dose–response model, which was obtained from sigmoidal fitting of dose–response curves.
(§2) The HEK293T cell line (immortalized human embryonic kidney cells) and the HeLa cell line (cervical cancer cells) were obtained from ATCC. Cells were cultured at 37 °C and 5% CO2 in high glucose Dulbecco’s modified Eagle’s medium (DMEM) containing 10% fetal bovine serum (FBS), penicillin (100 units/mL), and streptomycin (100 μg/mL).
(§3) Ruthenium complexes were diluted in stock solutions of 10 mM in dimethyl sulfoxide (DMSO). A similar concentration of cisplatin dissolved in H2O was used. Cells were seeded in sterile tissue culture 96-well plates at a density of 3,000 cells per well. After 24 h, the medium was removed and replaced with fresh media containing various concentrations (0.01 μΜ, 0.1 μΜ, 1 μΜ, 10 μΜ, 25 μΜ, 40 μΜ, 55 μΜ, 70 μΜ, 85 μΜ, and 100 μΜ) of the compounds to be tested and were further incubated for 48 h at 37 °C. DMSO was used as vehicle at ≤1%. Culture medium containing the compounds (or DMSO) was removed and 100 μL of 0.5 mg/mL MTT reagent (Applichem) diluted in DMEM was added to the cells for 3 h at 37 °C. After 3 h incubation, MTT was removed and 200 μL of DMSO was added. Absorbance values of formazan were measured at 540 nm using a BioTek Synergy H1 microplate reader (Agilent). All compounds were tested in triplicate. The results were statistically analyzed using the nonlinear regression by GraphPad PRISM (Version 9) to extract IC50 values.
In general terms: Tetrazolium dyes change colour on reduction, which living cells bring about.

Series [1] relates to HeLa cells. Kind of series: MTT cell viability assay, HeLa cells. The series is classed as cell-based, human. The settings on record: 48 h incubation, mean ± SD, stock in DMSO (3-Cl and cisplatin in water). The protocol: as §1, §2, §3
A short description of series [2]: Solution stability by 1H NMR spectroscopy. The series is classed as physicochemical. The text has this:
The solution NMR spectra (^1H and ^13C{^1H}) of 1-Cl and 1-PF6 in CDCl3 feature the characteristic set of resonances of the pqhyme and p-cymene ligands supporting the proposed formulae of the compounds (Figures S2–S5 of the Supplementary Materials). Atom numbering for NMR assignment is included in Scheme 1. […] The separate and well-resolved resonance signals at δ 5.92–5.61 in a ratio of 1:1:1:1 (according to integration) are typical of the p-cymene ring protons. The characteristic singlet resonance signals at δ 5.47 for 1-Cl and 5.48 for 1-PF6 are attributed to the -CH2 protons of the pending -CH2OH moiety. These were upfield shifted compared to the p-cymene ligand of the metal precursor [43]. In addition, the septet resonance signals at δ 2.29 for 1-Cl and δ 2.44 for 1-PF6 are indicative of the -CH(CH3)2 proton, while the two […] at δ 0.87/0.91 (1-Cl) and δ 0.93/0.97 (1-PF6) can be assigned to the methyl protons of the isopropyl group. For 1-Cl, and after two days of standing in CDCl3, free p-cymene was detected (c.a. 2.6%) along with the formation of new unknown species. The ^1H NMR pattern of the spectrum remained practically unchanged (Figure S7).
The ^1H NMR spectrum of 2-Cl was recorded in DMSO-d6 at ambient temperature. […] The stability of 2-Cl in DMSO is shown below in Section 2.1.1. […] The singlet resonance at δ 8.94 is typical for H3 of the bidentate ligand, while the four separate doublet resonance signals in between δ 6.19, 6.13, 6.03, and 5.97 correspond to the p-cymene ring protons. […] In this region, the CH3 protons of the -CH-(CH3)2 moiety appear as two doublet resonances at δ 0.81 and 0.77, respectively. The ^13C NMR signals of 2-Cl were assigned by two-dimensional ^1H–^13C HSQC and ^1H–^13C HMBC methods and compared with the literature data from similar complexes. […] Analyzing the spectrum, the resonance signal at δ 166.31 is assigned to the carbon atom of the carboxylic acid group of pqca. In the aliphatic region of the spectrum, the carbon atoms from the CH3 groups of p-cymene ligand appear as intense singlets at δ 21.58, 21.21, and 18.18, respectively (Figures S12–S15).
(§4) The cytotoxicity studies of the organometallic ruthenium(II) complexes 1-Cl, 2-Cl, and 3-PF6 were carried out in dimethyl sulfoxide (DMSO) while 3-Cl was dissolved in water. According to UV–Vis spectroscopy, complexes 1-Cl and 2-Cl are stable in the media that are used for the biological assays (Figures S25–S26), while 3-Cl undergoes hydrolysis approximately 3 h after with isosbestic points at 276 nm and 322 nm, respectively (Figure S27). […] In any case, for the biological assays, freshly prepared solutions were prepared that were utilized within approximately 5–10 min.

The next series in a line: Solubility (qualitative). The settings on record: solvents. Type of series: physicochemical. The protocol: The mononuclear organometallic complex 1-Cl comprising the pqhyme ligand was isolated as an orange–brown solid in high yield. […] Subsequent treatment with a saturated aqueous KPF6 solution afforded, via a metathesis reaction, the hexafluorido analog 1-PF6. Both complexes are air-stable in the solid state and melt with decomposition at 155 °C and 137 °C, respectively. The FT-IR spectra (ATR mode) of both complexes are almost identical, as expected for complexes that display very similar structures. For 1-Cl the presence of water of crystallization is evident from the intense and broad bands at ∼3350–3250 cm^−1 due to the antisymmetric and symmetric ν(O-H) stretching vibration modes. The O–H stretching vibration band from pending -CH2OH moiety is hampered within the broadness of the band reported above. Also, the strong band at approximately 1650 cm^−1 is due to the δ(H–O-H) bending mode. The characteristic bands at 3061 cm^−1, and in the region of 2998–2850 cm^−1 correspond to ν(C–H) aromatic and aliphatic stretching vibrations modes of the ligand, while the medium intensity band at ∼800 cm^−1 is typical for the stretching vibration mode of ν(Ru–C). In the region of 800-600 cm^−1, the spectrum is dominated by the very strong in-plane and out-of-plane deformation bands from the pyridine ring of pqhyme ligand. For 1-PF6, the two very strong bands at 840 cm^−1 and 557 cm^−1 are assigned to the ν3(P–F) and ν4(P–F) vibration modes of the PF6^− anion (Figure S1 of the Supplementary Materials).
The [Ru(η^6-p-cymene)(pqca)Cl]Cl complex 2-Cl was isolated in 85% yield as an orange–red air-stable solid that melts at 125 °C. Upon further heating, decomposition occurs at 150 °C, accompanied by gas evolution, leading to a black solid.
The [Ru(η^6-p-cymene)(pqcame)Cl]Cl analog 3-Cl was isolated almost quantitatively as a dark brown air-stable solid that decomposes at 111 °C. […] The FT-IR spectrum of 3-Cl is characterized by a strong asymmetric stretching vibration typical of the νas(C=O) of the ester moiety at 1722 cm^−1, shifted to higher wave numbers compared with 2-Cl. […]

The nature of series [3]: Solution stability by UV-Vis spectroscopy. Type of series: physicochemical. The settings on record: for Stability in the media used for the biological assays (UV-Vis): DMSO, ambient temperature. The protocol:
To ensure the stability of the complexes for the in vitro cytotoxicity measurements, UV–Vis and ^1H NMR spectroscopic techniques were undertaken. UV–Vis spectra were recorded in DMSO (not dry), for complexes 1-Cl and 2-Cl (Figures S25–S27) and in water for complex 3-Cl (Figure 3), at ambient temperature, immediately after dissolution. The absorption spectra of 1-Cl and 2-Cl show a broad absorption band centered at ~ 435 nm, as reported for other ruthenium(II) half-sandwich arene complexes. For 3-Cl, this band becomes weaker and is blue-shifted to 422 nm. Ongoing from 1-Cl to 3-Cl, the set of high energy bands observed at 354 nm/296 nm (1-Cl), 357 nm/298 nm (2-Cl), and 357 nm/293 nm (3-Cl), are typical of metal-to-ligand charge transfer absorption bands (MLCT) and ligand-centered π–π* transitions. Within the series, ε values for these transitions range from 3000 to 9600 dm^3 mol^−1 cm^−1, with the methyl ester analog 3-Cl, displaying the higher extinction coefficient value of ∼9600 dm^3 mol^−1 cm^−1.
as §4

In series [4] the test system is HeLa cells. The settings on record: cited from earlier work.
Series [5] relates to carcinoma human T24 bladder cells. Set-up: method as in PMID 37569273. The settings on record: T24 bladder cells vs other cell lines; cited from earlier work.

Results on 12 compounds are retold here after paper PMC11243419, “Ruthenium p-Cymene Complexes Incorporating Substituted Pyridine–Quinoline-Based Ligands: Synthesis, Characterization, and Cytotoxic Properties” (Molecules, 2024).

Like-named read-outs stand apart in the source and are kept apart here. Where only a bound is given, the exact number is not on record here.

Regarding “4-carboxymethyl-2-(pyridin-2-yl)quinoline [pqcame]”, the values for the IC50 with HEK293T cells and in the series with HeLa cells [1] were 48.9 ± 3.19 µM and 56.4 ± 12.7 µM, respectively.
For `Cc1ccc(C(C)C)cc1.Cc1ccc(C(C)C)cc1.[Cl][Ru][Cl].[Cl][Ru][Cl]` [[Ru(p-cymene)Cl2]2, [Ru(η^6-p-cymene)(μ-Cl)Cl]2] the same measures were 48.3 ± 1.66 µM and 48.9 ± 1.73 µM.
For [Ru(η^6-p-cymene)(pqhyme)Cl][Cl] [1-Cl], the “Stability in DMSO-d6 (1H NMR)” value in series [2] (DMSO-d6) is recorded as “stable”. The “Free p-cymene detected (1H NMR)” value in series [2] (after two days of standing in CDCl3) is on record as approximately 2.6%. Besides, the Solubility result in “Solubility (qualitative)” is “dissolves in DMSO, and water and is less soluble in CHCl3”. Also, the IC50 (usually the point on the concentration scale where inhibition reaches its midpoint) with HeLa cells [1] is 119 ± 1.29 µM. Besides, the “Stability in the media used for the biological assays (UV-Vis)” value in series [3] is on record as “stable”.
With `OCc1cc(-c2ccccn2)nc2ccccc12` [pqhyme, 4-hydroxymethyl-2-(pyridin-2-yl)quinoline], the IC50 with HEK293T cells (Homo sapiens, HEK-293T) came to 2.67 ± 1.23 µM; with HeLa cells [1] (Homo sapiens, HeLa) it was 12.8 ± 1.01 µM.
Turning to `Cc1ccc(C(C)C)cc1.Nc1ccc(O)cc1.[Cl][Ru][Cl]`, the half-maximal inhibitory concentration (IC50) in the series with HeLa cells [4] was 171 µM.
`N.N.[Cl][Pt][Cl]` [cis-platin, cisplatin, reference compound]: the concentration for half-maximal inhibition (IC50) in the series with HEK293T cells was determined as 16.4 ± 7.62 µM; with HeLa cells [1], 9.26 ± 1.09 µM.
Consider [Ru(η^6-p-cymene)(pqcame)Cl][Cl] [3-Cl], for which the Solubility entry in “Solubility (qualitative)” was “dissolves in water, DMSO, and other polar solvents”. The IC50 in the series on HEK293T cells is more than 115 µM; with HeLa cells [1], more than 80 µM. The “Time until hydrolysis (UV-Vis, isosbestic points at 276 nm and 322 nm)” value in series [3] (in water) is listed as “approximately 3 h”.
Consider [Ru(η^6-p-cymene)(pqca)Cl][Cl] [2-Cl], for which the “Period of 1H NMR monitoring showing stability” value in series [2] (DMSO-d6) was “more than 72 h”. The “Stability in DMSO-d6 (1H NMR)” value in series [2] (DMSO-d6) is given as “practically remains stable”. The Solubility result in “Solubility (qualitative)” is “soluble in polar organic solvents (MeOH, EtOH, water) including DMSO and DMF”. Also, the IC50 came out at 180 ± 49.1 µM with HEK293T cells and 162 ± 21.3 µM with HeLa cells [1]. In series [3], the “Stability in the media used for the biological assays (UV-Vis)” value is listed as “stable”.
On to “[Ru(η^6-p-cymene)(pqcame)Cl][PF6] [3-PF6]”, for which the IC50 with HEK293T cells came out at 145 ± 16.2 µM; with HeLa cells [1], 134 ± 3.3 µM.
As for `Cc1ccc(C(C)C)cc1.Nc1ccccc1O.[Cl][Ru][Cl]`, in the series with HeLa cells [4], the IC50 was 82.9 µM.
As for `O=C(O)c1cc(-c2ccccn2)nc2ccccc12` [pqca, 4-carboxy-2-(pyridin-2-yl)quinoline], the IC50 was 87.5 ± 1.3 µM in the series on HEK293T cells (Homo sapiens, HEK-293T) and 100 ± 3.47 µM with HeLa cells [1] (Homo sapiens, HeLa).
Consider `Cc1ccc(C(C)C)cc1.O=C(O)c1ccnc(-c2cc(C(=O)O)ccn2)c1.[Cl-].[Cl-].[Ru+2]`, for which the “Selectivity among cell lines” value in series [5] is reported as “high selectivity toward carcinoma human T24 bladder cells”.
